This note sets out measurements from US12441733B2, “Substituted 2,4-dioxotetrahydropyrimidines as intermediates in the synthesis of bruton's tyrosine kinase inhibitors” (Novartis AG, priority 2018, dated 2025).

SMILES strings stand for the structures.

Type in all cases: cell-based
One test deals with TMD8 cells. Description: Resazurin cell viability (proliferation) assay in TMD8 DLBCL cells. Particulars: Homo sapiens, TMD8 cells (BTK dependent), 72 h, 50% growth inhibition vs vehicle, read-out: TMD8 Prol GI50. The protocol:
(§1) Compounds of the invention were tested in the following cellular assays. The terms in Table 2 are defined as follows: DC50 refers to the concentration at which 50% maximal degradation was observed; deg Amax is the extent of degradation and the value refers to the % protein remaining at the concentration at which maximum degradation is seen; ProI GI50 refers to the proliferation data and defines the concentration at which 50% growth inhibition was observed compared to the vehicle treated control at the end of the incubation time. TMD8 cells are BTK dependent and OCI-LY3 cells are BTK independent.
(§2) Cell Viability Assay in DLBCL (Diffuse Large B-Cell Lymphoma) Cells:
(§3) The effect of the BTK compounds on cell proliferation was measured by a Resazurin (Sigma, #R7017) based cell viability assay. TMD8 (BTK compound sensitive) and OCI-LY3 (BTK compound insensitive) cells were incubated for 72 h at 37° C. and 5% CO2 with the corresponding compound, Resazurin is a non-toxic, cell-permeable substrate that is virtually non-fluorescent. Upon entering living cells, Resazurin (Sigma, #R7017) is reduced to highly fluorescent Resorufin. The metabolic activity was assessed by measuring the fluorescence signal (ex. 530 nm; em. 600 nm).
(§4) TMD8 and OCI-Ly3 cells were seeded at day 0 in triplicates at a cell density of 1×10^4 cells per 150 μl/well in a 96-well plate (Costar #3904). Additional plates were prepared, in order to assess the basal metabolic activity of both cell lines at the beginning of the experiment. For these reference plates, Resazurin (Sigma, #R7017) was added to a final concentration of 13 μg/ml 3 h post seeding and was incubated for 2 h at 37° C. and 5% CO2. Following incubation, the fluorescent signal intensity of the 96-well plates was measured on a Mithras LB940 multimode plate reader at 530/600 nm (Berthold Technologies, Germanyl).
(§5) In parallel, 3 h post-seeding, test-plates were treated with compound at various concentrations, or with vehicle (DMSO) alone for 3 days. The compound addition to the plates was performed by using a HP D300 digital dispenser (TECAN, Switzerland). The compounds were tested in triplicate, 8-point serial dilution (1:4), with a start concentration of 10 μM for OCI-LY3 and 1 μM for the TMD8 cells, respectively. To assess the relative proliferation of the cells, Resazurin was added to each well directly to the medium to a final concentration of 13 μg/ml. The plates were incubated for 2 h at 37° C. and 5% CO2 to result in a 72 h endpoint. Following incubation, the fluorescent signal intensity of the 96-well plates were measured on a Mithras LB940 multimode plate reader at 530/600 nm (Berthold Technologies, Germanyl). The formation of Resorufin dye directly correlates with the number of metabolically active cells. For each triplicate treatment the mean and standard deviation were calculated and analyzed via curve fitting software to determine the respective compound concentration resulting in 50% growth inhibition (GI50) values. For each compound GI50 values were typically determined from at least 2 entirely independent experiments.
TMD8 cells were acquired through a license agreement with Tokyo Medical and Dental University, Japan. Cells are cultivated in MEM Alpha (BioConcept, #1-23F01-1, lot. LB04262P) supplemented with 10% FCS (HyClone, GE #SH30066.03, lot AB3217603), 2 mM L-Glutamine (BioConcept, #5-10K50-H, lot. LA03467P), 1% Pen/Strep (BioConcept, #4-01F00-H, lot. LB04235P).
A general note: The colour change of resazurin is a common sign of viable cells or microbes.

Another test relates to OCI-LY3 cells. Description: Resazurin cell viability (proliferation) assay in OCI-LY3 DLBCL cells. As to conditions: Homo sapiens, OCI-LY3 cells (BTK independent), 72 h, 50% growth inhibition vs vehicle, read-out: OCI-LY3 Prol GI50. The protocol:
as §1, §2, §3, §4, §5
OCI-LY3 cells were acquired through a license agreement with University Health Network, Toronto, Canada. Cells are cultivated in RPM11640 media (Gibco, #61870-010, lot. 1894759), supplemented with 10% FCS (HyClone, GE #SH30066.03, lot AB217603), 2 mM L-Glutamine (BioConcept, #5-10K50-H, lot. LA03467P), 1 mM Sodium Pyruvate (BioConcept, #5-60F00-H, lot. LB10510P), 10 mM HEPES (Gibco, #15630-056, lot. 1854074), 1% Pen/Strep (BioConcept, #4-01F00-H, lot. LB04235P).

The target in another test is T1, BTK-GFP (Homo sapiens, UniProt Q06187+Q96SW2).
T1 construct: expressed in transfected cells; host or cells: HEK293A (Invitrogen R70507), lentiviral transduction with pLenti6-BTK-GFP-Ires-RFP, blasticidin selection
Put plainly: BTK-GFP protein abundance flow cytometry assay in HEK293A cells. Particulars: HEK293A BTK-GFP-iresRFP cells, 24 h; for DC50: GFP signal by flow cytometry, concentration at which 50% maximal degradation was observed; for BTK deg Amax: % protein remaining at the concentration at which maximum degradation is seen. The method, then:
as §1
BTK-GFP and IKZF3-GFP protein abundance flow cytometry assay in HEK293A cells:
Degradation of BTK or IKZF3 was measured in HEK293A cells (Invitrogen R70507) expressing either BTK-GFP and RFP or IKZF3-GFP and RFP from a stably integrated bicistronic BTK-GFP-iresRFP or IKZF3-GFP-iresRFP construct, respectively. Reduction of the GFP signal measured by flow cytometry served as readout for BTK or IKZF3 degradation after degrader treatment.
i) Cloning of the pLenti6-BTK-GFP-1Res-RFP and IKZF3-GFP-Ires-RFP Sensor Vectors
The bicistronic BTK-GFP-iresRFP construct is based on a pLenti6-DEST vector backbone where GFP was introduced into the unique Xho1 site downstream of the destination cassette (DEST) and RFP was cloned behind an internal ribosomal entry site (Ires).
In detail, the sensor construct was engineered by replacing NanoLuciferase (NLuc) by GFP and FireFly luciferase (FF) by RFP from pLenti6-DEST-NLuc-Ires-FF.
The pLenti6-DEST-NLuc-Ires-FF sensor construct was cloned by replacing eGFP from pLenti6-DEST-ires-eGFP with a synthesized stuffer element (encoding Ires-FF with FF flanked by two Nhe1 restriction sites) using blunt end cloning replacing Ires-eGFP between the two PmII. To enable C-terminal tagging with NanoLuciferase (NLuc), NLuc was amplified from pNL1.1 (Promega #N1001) using linker primers with Xho1 sites for ligating into linearized pLenti6-DEST-Ires-FF using Xho1 digest resulting in the construct pLenti6-DEST-NLuc-Ires-FF.
The pLenti6-DEST-NLuc-Ires-FF served as base vector for cloning pLenti6-DEST-GFP-Ires-RFP using Gibson assembly to replace FF with RFP and NLuc with GFP. In a first round FF was replaced by RFP by amplifying RFP from a template using the following Gibson assembly linker primers (Gibson-Nhe1 RFPfw, […]gctagc[…] (SEQ ID NO: 1); Gibson-Nhe1 RFP-Stoprev, […]ctagc[…] (SEQ ID NO: 2)) to clone into pLenti6-DEST-NLuc-Ires-FF digested with Nhe1 and gel-purified to remove the FF fragment. The resulting pLenti6-DEST-NLuc-Ires-RFP vector served as the template to replace NLuc with GFP by amplifying GFP from a template using following Gibson assembly linker primers (Gibson-Xho1 GFPfw, […]c[…] (SEQ ID NO: 3); Gibson-Xho1 GFP-Stoprev, […] (SEQ ID NO: 4)) to clone into pLenti6-DEST-NLuc-Ires-RFP digested with Xho1 and gel-purified to remove the NLuc fragment. All Gibson assembly reactions were performed with Gibson assembly Master Mix (New England Biolabs NEB E261 IL) according to manufacturer's manual, resulting in the destination vector pLenti6-DEST-GFP-Ires-RFP to allow Gateway cloning. To enable gateway cloning and C-terminal GFP tagging of BTK, the BTK open reading frame (ORF) was first shuttled from a pcDNA-DEST40-BTK vector (Invitrogen library ID INV_20090504v1) into pDONR221 (Invitrogen 12536-017) vector using a gateway BP reaction according to the manufacturer's manual (Invitrogen 11789-013) resulting in the novel construct pENTR221-BTK. For C-terminal tagging the STOP codon was mutated to a leucine performing a mutagenesis reaction with the following primers (pENTR221-BTK Quikchange STOP-Leu fw, gtcatggatgaagaatccTTGaacccagctttcttgtac; pENTR221-BTK Quikchange STOP-Leu REVC, gtacaagaaagctgggttCAAggattcttcatccatgac) using the QuikChange Lightning mutagenesis kit (Agilent Technologies #210518) according to the manufacturer's manual, resulting in pENTR221-BTK (STOP-Leu). […]
Background: A flow cytometer gives signals particle by particle.

T1 sequence (Q06187 whole entry): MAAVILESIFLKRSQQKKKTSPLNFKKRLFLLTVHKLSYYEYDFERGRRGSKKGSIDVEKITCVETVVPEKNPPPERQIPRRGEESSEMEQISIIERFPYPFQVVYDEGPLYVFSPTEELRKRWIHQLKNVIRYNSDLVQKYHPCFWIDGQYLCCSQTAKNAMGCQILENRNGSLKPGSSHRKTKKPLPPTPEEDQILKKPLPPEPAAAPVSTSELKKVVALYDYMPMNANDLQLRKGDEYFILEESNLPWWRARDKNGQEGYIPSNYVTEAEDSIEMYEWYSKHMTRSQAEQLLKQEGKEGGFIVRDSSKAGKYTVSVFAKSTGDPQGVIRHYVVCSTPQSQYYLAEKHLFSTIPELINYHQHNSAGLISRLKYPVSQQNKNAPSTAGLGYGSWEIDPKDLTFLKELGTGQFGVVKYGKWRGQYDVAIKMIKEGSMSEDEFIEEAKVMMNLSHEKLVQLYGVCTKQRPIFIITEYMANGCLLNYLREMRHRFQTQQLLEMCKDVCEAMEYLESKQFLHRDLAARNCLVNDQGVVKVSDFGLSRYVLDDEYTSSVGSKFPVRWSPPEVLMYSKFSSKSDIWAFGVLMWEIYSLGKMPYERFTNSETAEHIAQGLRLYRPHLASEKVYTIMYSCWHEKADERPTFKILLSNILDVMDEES
T1 sequence (Q96SW2 whole entry): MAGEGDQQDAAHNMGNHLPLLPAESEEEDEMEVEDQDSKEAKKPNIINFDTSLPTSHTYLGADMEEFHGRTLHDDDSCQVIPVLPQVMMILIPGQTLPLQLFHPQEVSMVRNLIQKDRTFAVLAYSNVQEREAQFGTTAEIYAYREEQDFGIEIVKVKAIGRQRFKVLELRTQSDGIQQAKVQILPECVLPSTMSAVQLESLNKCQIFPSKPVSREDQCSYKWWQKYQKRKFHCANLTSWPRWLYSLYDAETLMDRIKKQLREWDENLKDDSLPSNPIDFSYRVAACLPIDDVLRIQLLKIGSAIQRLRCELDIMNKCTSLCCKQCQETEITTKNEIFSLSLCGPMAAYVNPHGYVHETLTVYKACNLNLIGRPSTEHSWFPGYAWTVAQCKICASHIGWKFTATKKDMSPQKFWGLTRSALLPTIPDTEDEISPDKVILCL
T1 sequence (Q16531 whole entry partner): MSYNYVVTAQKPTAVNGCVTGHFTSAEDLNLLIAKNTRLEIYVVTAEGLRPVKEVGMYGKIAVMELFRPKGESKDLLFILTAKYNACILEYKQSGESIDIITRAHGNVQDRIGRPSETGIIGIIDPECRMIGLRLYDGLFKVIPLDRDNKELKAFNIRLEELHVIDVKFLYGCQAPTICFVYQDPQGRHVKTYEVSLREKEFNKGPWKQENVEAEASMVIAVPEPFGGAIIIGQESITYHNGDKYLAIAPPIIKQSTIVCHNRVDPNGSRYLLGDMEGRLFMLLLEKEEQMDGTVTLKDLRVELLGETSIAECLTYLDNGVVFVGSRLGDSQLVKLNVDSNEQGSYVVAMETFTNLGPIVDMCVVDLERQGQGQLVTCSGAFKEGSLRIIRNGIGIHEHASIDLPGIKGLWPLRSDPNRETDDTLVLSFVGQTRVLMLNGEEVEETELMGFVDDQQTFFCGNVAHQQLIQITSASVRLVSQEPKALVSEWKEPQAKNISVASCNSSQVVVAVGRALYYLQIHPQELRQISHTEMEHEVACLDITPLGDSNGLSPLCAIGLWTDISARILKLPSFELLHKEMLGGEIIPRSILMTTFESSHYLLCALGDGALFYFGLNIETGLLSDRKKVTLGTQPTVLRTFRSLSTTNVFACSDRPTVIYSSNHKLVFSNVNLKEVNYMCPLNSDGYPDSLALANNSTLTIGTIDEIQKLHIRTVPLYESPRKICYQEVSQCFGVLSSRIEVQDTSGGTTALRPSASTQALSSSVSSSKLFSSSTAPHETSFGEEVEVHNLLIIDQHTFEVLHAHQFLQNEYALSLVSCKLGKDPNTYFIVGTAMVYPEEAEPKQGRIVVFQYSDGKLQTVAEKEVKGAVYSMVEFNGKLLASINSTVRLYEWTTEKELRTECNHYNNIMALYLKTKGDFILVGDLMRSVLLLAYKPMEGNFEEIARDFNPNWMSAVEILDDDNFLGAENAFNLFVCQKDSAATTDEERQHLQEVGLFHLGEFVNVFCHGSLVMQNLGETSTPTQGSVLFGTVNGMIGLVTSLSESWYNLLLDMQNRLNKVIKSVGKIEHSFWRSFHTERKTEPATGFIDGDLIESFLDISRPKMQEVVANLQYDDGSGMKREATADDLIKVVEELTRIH

As a reminder, the GI50 is the concentration giving 50% growth inhibition. As a reminder, the DC50 is the midpoint of the concentration-degradation curve. A lower DC50 goes with a more potent degrader. Turning to `Cc1ccc(C(=O)N2CCC(OC3CCN(Cc4ccc(-c5cc6c(-c7cc(F)cc(NC(=O)c8ccc(C(C)(C)O)cc8F)c7C)ncnc6[nH]5)cc4)CC3)CC2)cc1N1CCC(=O)NC1=O` [Compound 50, N-(3-(6-(4-((4-((1-(3-(2,4-dioxotetrahydropyrimidin-1(2H)-yl)-4-methylbenzoyl)piperidin-4-yl)oxy)piperidin-1-yl)methyl)phenyl)-7H-pyrrolo[2,3-d]pyrimidin-4-yl)-5-fluoro-2-methylphenyl)-2-fluoro-4-(2-hydroxypropan-2-yl)benzamide], the GI50 with TMD8 cells was found to be 0.66 nM; in the test with OCI-LY3 cells, 7770 nM. In addition, it took 1.2 nM to reach half-maximal degradation at BTK-GFP (DC50). The “BTK deg Amax” value on BTK-GFP stood at 4.1%.

With `Cc1cc(F)c(C(=O)N(C)CCCCCNCc2ccc(-c3cc4c(-c5cc(F)cc(NC(=O)c6ccc(C(C)(C)O)cc6F)c5C)ncnc4[nH]3)cc2)cc1N1CCC(=O)NC1=O` [Compound 28, 5-(2,4-Dioxotetrahydropyrimidin-1(2H)-yl)-2-fluoro-N-(5-((4-(4-(5-fluoro-3-(2-fluoro-4-(2-hydroxypropan-2-yl)benzamido)-2-methylphenyl)-7H-pyrrolo[2,3-d]pyrimidin-6-yl)benzyl)amino)pentyl)-N,4-dimethylbenzamide], in the test on TMD8 cells, the GI50 turned out to be 7.16 nM. Also, the GI50 in the test on OCI-LY3 cells came to 6120 nM. Further, on BTK-GFP, it took 93.7 nM to reach half-maximal degradation (DC50) and the “BTK deg Amax” value came to 12.1%.

As for `COc1ccc(C(=O)N2CCC(CN3CCN(Cc4ccc(-c5cc6c(-c7cc(F)cc(NC(=O)c8ccc(C(C)(C)O)cc8F)c7C)ncnc6[nH]5)cc4)CC3)CC2)cc1N1CCC(=O)NC1=O` [Compound 7, N-(3-(6-(4-((4-((1-(3-(2,4-Dioxotetrahydropyrimidin-1(2H)-yl)-4-methoxybenzoyl)piperidin-4-yl)methyl)piperazin-1-yl)methyl)phenyl)-7H-pyrrolo[2,3-d]pyrimidin-4-yl)-5-fluoro-2-methylphenyl)-2-fluoro-4-(2-hydroxypropan-2-yl)benzamide], the GI50 with TMD8 cells was found to be 0.39 nM. Besides, the GI50 in the test with OCI-LY3 cells worked out at 6120 nM. Also, on BTK-GFP, the DC50 worked out at 0.7 nM and the “BTK deg Amax” value was found to be 3.3%.

As for `COc1ccc(C(=O)N2CCC3(CCN(Cc4ccc(-c5cc6c(-c7cc(F)cc(NC(=O)c8ccc(C(C)(C)O)cc8F)c7C)ncnc6[nH]5)cc4)C[C@H]3CO)CC2)cc1N1CCC(=O)NC1=O` (single isomer, unassigned) [Compound 25], the 50% growth inhibitory concentration (GI50) with TMD8 cells is 11.4 nM; in the test on OCI-LY3 cells, greater than 10000 nM. In addition, half-maximal degradation on BTK-GFP (DC50) was put at 78.4 nM. At BTK-GFP, the “BTK deg Amax” value is 7.2%.

On to `COc1ccc(C(=O)N2CCC(C(=O)N3CCN(Cc4ccc(-c5cc6c(-c7cc(F)cc(NC(=O)c8ccc(C(C)(C)O)cc8F)c7C)ncnc6[nH]5)cc4)CC3)CC2)cc1N1CCC(=O)NC1=O` [Compound 33, N-(3-(6-(4-((4-(1-(3-(2,4-dioxotetrahydropyrimidin-1(2H)-yl)-4-methoxybenzoyl)piperidine-4-carbonyl)piperazin-1-yl)methyl)phenyl)-7H-pyrrolo[2,3-d]pyrimidin-4-yl)-5-fluoro-2-methylphenyl)-2-fluoro-4-(2-hydroxypropan-2-yl)benzamide], for which the GI50 in the test with TMD8 cells came out at 3.97 nM. In addition, the GI50 in the test on OCI-LY3 cells turned out to be 4280 nM. In addition, at BTK-GFP, the DC50 came out at 22.2 nM and the “BTK deg Amax” value is given as 5.9%.

Consider `COc1ccc(C(=O)N2CCN(CCNCCCCOc3ccc(-c4cc5c(-c6cc(F)cc(NC(=O)c7ccc(C(C)(C)O)cc7F)c6C)ncnc5[nH]4)cc3)CC2)cc1N1CCC(=O)NC1=O` [Compound 36, N-(3-(6-(4-(4-((2-(4-(3-(2,4-dioxotetrahydropyrimidin-1(2H)-yl)-4-methoxybenzoyl)piperazin-1-yl)ethyl)amino)butoxyl)phenyl)-7H-pyrrolo[2,3-d]pyrimidin-4-yl)-5-fluoro-2-methylphenyl)-2-fluoro-4-(2-hydroxypropan-2-yl)benzamide], for which the GI50 with TMD8 cells turned out to be 2.94 nM. Further, the GI50 in the test on OCI-LY3 cells was greater than 10000 nM. For the same compound, at BTK-GFP, the DC50 amounted to 37 nM and the “BTK deg Amax” value is recorded as 2.4%.
